Laboratory results as given in US5508269A, “Aminoglycoside formulation for aerosolization” (priority 1994, dated 1996).
In brackets after ≈: the same amount, converted by molar mass. Several values for one entry are separate records, joined by “and”; a condition that tells them apart may be missing. Equal values may be shown once. Read-outs that look alike come from different tables or passages of the source.

Experiments:
[1] = type: in vivo, CF patients; details: for ± % change FEV1: 30 min after aerosol, 300 mg in 5 ml 1/4 NS, single subjects 001-005 in order
Procedure: The doses were separated by at least 2 days and not more than 5 days. Peak serum and sputum concentrations were assessed and results are seen in Tables 5 and 6.
Sixty patients were enrolled. Each patient received, in random order, one administration from each nebulizer delivery system. Each aerosol administration was separated by a minimum of 48 hr. […] Airway irritation and acute bronchospasm were assessed by measuring spirometry immediately prior to and 30 min post-completion of aerosol administration. A decrease in FEV1>15% in the 30 min spirometry test was considered evidence of bronchospasm.

[2] = cited from earlier work
P. aeruginosa = details: cited from earlier work
Pseudomonas aeruginosa [3] = test: Previously studied 80 mg doses of tobramycin; type: in vivo, patients; details: initially
Excerpt: If any degree of drug resistance developed, only a small percentage of patients would be effectively treated.

[4] = cited from earlier work; remark: listed apart in the source
[5] = Accelerated stability study at 40° C; type: physicochemical; details: pH greater than 7.0
Excerpt: The higher temperature was chosen to accelerate any degradation process. […] Color was examined by KS scale.

Pseudomonas aeruginosa [6] = test: MIC of tobramycin for P. aeruginosa isolates from sputum of CF patients; type: cell-based; details: for # of Patients (isolate with maximum density) / Cumulative Frequency (isolate with maximum density): most common isolate; for Cumulative Frequency (isolate with maximum MIC): most resistant isolate
Procedure: This study was a one-year review of all microbiologic records at Children's Hospital in Seattle. All positive Pseudomonas aeruginosa culture data were collated that occurred in patients with Cystic Fibrosis. If multiple cultures from a single individual had been obtained, the first culture was taken as representative.
MIC90 is the concentration of the drug which inhibits 90% of Pseudomonas aeruginosa isolates. Sputum samples from CF patients were cultured to produce individual colony forming units (CFUs). The MIC was then determined for individual CFUs. CFUs were considered different isolates if their MICs were different.

[7] = parenteral, short period of time; cited from earlier work
[8] = Clinical Trial II, sputum tobramycin levels with three nebulizers; type: in vivo, patients with cystic fibrosis; details: for sputum tobramycin level, grand mean: 20 patients
Procedure: This was an open label, multicenter, randomized, cross-over three arm study. Each arm was different nebulizer delivery system. Two arms deliver the same tobramycin formulation.
2. […] The number of inhalations required as recorded.
3. […] The number of inhalations required was recorded.
[…] Each patient received, in random order, one administration from each nebulizer delivery system. Each aerosol administration was separated by a minimum of 48 hr. […] Airway irritation and acute bronchospasm were assessed by measuring spirometry immediately prior to and 30 min post-completion of aerosol administration. A decrease in FEV1>15% in the 30 min spirometry test was considered evidence of bronchospasm.
Immediately after completing the aerosol therapy, the subject rinsed with 30 ml of normal saline through the mount, gargled for 5-10 seconds and expectorated the rinse. This was repeated for a total of three rinses. Sputum specimens were collected at 10 minutes after rinsing oral cavity and 2 hours after completion of the aerosol drug administration. […] Spirometry was obtained 30 minutes following completion of the aerosol drug administration. Following the last aerosol treatment of the study, patients received a brief physical exam after post-spirometry has been measured.

[9] = Preliminary pharmacokinetics of tobramycin in sputum after aerosol; type: in vivo, patients with CF; details: 20 mg/ml in 30 ml half normal saline; for Cmax: Ultraneb 99, 200 inhalations, twenty patients
Procedure: These levels ranged from 310.4 μg/gm to 5,941 μg/gm, with median level at 1,606 μg/gm). The sputum levels declined rapidly after 30 minutes, reaching a minimum at four hours.

clinical = type: in vivo, CF patients; details: for Sputum Tobramycin Concentrations / Serum Tobramycin: Baseline; for Sputum Tobramycin Concentrations: per subject or mean line; for Serum Tobramycin / concentration at 1 h / concentration at 2 h: single subjects 001-005 in order; for concentration at 10 min / concentration at 1 h / concentration at 2 h: human, inhaled or intranasal, 300 mg; for concentration at 1 h: 1 hour after aerosol; for concentration at 2 h: 2 hours after aerosol
Excerpt: The doses were separated by at least 2 days and not more than 5 days.

Pseudomonas aeruginosa [10] = details: Pedia Pulmonol. 6:91-8 (1989); cited from earlier work
[11] = Sidestream, 300 mg in 5 ml 1/4 NS
[12] = serum, Serum Tobramycin, Pari LC, 300 mg in 5 ml 1/4 NS

NC[C@H]1O[C@H](O[C@H]2[C@H](O)[C@@H](O[C@H]3O[C@H](CO)[C@@H](O)[C@H](N)[C@H]3O)[C@H](N)C[C@@H]2N)[C@H](N)C[C@@H]1O [tobramycin]
safety of dosage (in words) ([1]; 300 mg in 5 ml of 60 mg/ml in 1/4 NS): extremely safe | ± % change FEV1 ([1]; Pari LC): -1.2% and 1.2% and -0.6% and -2% and -5% | ± % change FEV1 ([1]; Sidestream): -2.2% and 0.0% and -7.6% and -1% | binding by sputum [2]: up to 90% | reduction in the density of P. aeruginosa in sputum, factor (P. aeruginosa; aerosolized, all three 28-day periods): 100 | improvement with aerosolized treatment (in words) (P. aeruginosa; entire three-period study): significant improvement | share of patients in whom dose would be predicted to be efficacious (Pseudomonas aeruginosa [3]): sixty to seventy | solubility [4]: 160 mg/mL (≈ 342 mM) | degradation of tobramycin (in words) [5]: degradation of tobramycin occurs | share of isolates whose MIC is exceeded approximately ten-fold by a sputum level of 128 μg/gm (Pseudomonas aeruginosa [6]; 128 μg/gm sputum level approximately ten-fold greater than MIC): 90% | share of isolates whose MIC is reached by a sputum level of 128 μg/gm (Pseudomonas aeruginosa [6]; 128 μg/gm sputum level greater than or equal to MIC): 98% | # of Patients (isolate with maximum density) (Pseudomonas aeruginosa [6]; MIC 1 μg/ml, n=58): 9 | Cumulative Frequency (isolate with maximum density) (Pseudomonas aeruginosa [6]; MIC 1 μg/ml, n=58): 78% | Cumulative Frequency (isolate with maximum MIC) (Pseudomonas aeruginosa [6]; MIC 1 μg/ml, n=58): 67% | # of Patients (isolate with maximum density) (Pseudomonas aeruginosa [6]; MIC 2 μg/ml, n=58): 3 | Cumulative Frequency (isolate with maximum density) (Pseudomonas aeruginosa [6]; MIC 2 μg/ml, n=58): 83% | Cumulative Frequency (isolate with maximum MIC) (Pseudomonas aeruginosa [6]; MIC 2 μg/ml, n=58): 75% | # of Patients (isolate with maximum density) (Pseudomonas aeruginosa [6]; MIC 4 μg/ml, n=58): 2 | Cumulative Frequency (isolate with maximum density) (Pseudomonas aeruginosa [6]; MIC 4 μg/ml, n=58): 86% | Cumulative Frequency (isolate with maximum MIC) (Pseudomonas aeruginosa [6]; MIC 4 μg/ml, n=58): 83% | # of Patients (isolate with maximum density) (Pseudomonas aeruginosa [6]; MIC 8 μg/ml, n=58): 2 | Cumulative Frequency (isolate with maximum density) (Pseudomonas aeruginosa [6]; MIC 8 μg/ml, n=58): 90% | Cumulative Frequency (isolate with maximum MIC) (Pseudomonas aeruginosa [6]; MIC 8 μg/ml, n=58): 86% | # of Patients (isolate with maximum density) (Pseudomonas aeruginosa [6]; MIC 16 μg/ml, n=58): 2 | Cumulative Frequency (isolate with maximum density) (Pseudomonas aeruginosa [6]; MIC 16 μg/ml, n=58): 93% | Cumulative Frequency (isolate with maximum MIC) (Pseudomonas aeruginosa [6]; MIC 16 μg/ml, n=58): 90% | # of Patients (isolate with maximum density) (Pseudomonas aeruginosa [6]; MIC 32 μg/ml, n=58): 1 | Cumulative Frequency (isolate with maximum density) (Pseudomonas aeruginosa [6]; MIC 32 μg/ml, n=58): 95% | Cumulative Frequency (isolate with maximum MIC) (Pseudomonas aeruginosa [6]; MIC 32 μg/ml, n=58): 93% | # of Patients (isolate with maximum density) (Pseudomonas aeruginosa [6]; MIC 64 μg/ml, n=58): 1 | Cumulative Frequency (isolate with maximum density) (Pseudomonas aeruginosa [6]; MIC 64 μg/ml, n=58): 97% | Cumulative Frequency (isolate with maximum MIC) (Pseudomonas aeruginosa [6]; MIC 64 μg/ml, n=58): 95% | # of Patients (isolate with maximum density) (Pseudomonas aeruginosa [6]; MIC 128 μg/ml, n=58): 2 | Cumulative Frequency (isolate with maximum density) (Pseudomonas aeruginosa [6]; MIC 128 μg/ml, n=58): 98% | Cumulative Frequency (isolate with maximum MIC) (Pseudomonas aeruginosa [6]; MIC 128 μg/ml, n=58): 98% | # of Patients (isolate with maximum density) (Pseudomonas aeruginosa [6]; MIC 256 μg/ml, n=58): 1 | Cumulative Frequency (isolate with maximum density) (Pseudomonas aeruginosa [6]; MIC 256 μg/ml, n=58): 100% | Cumulative Frequency (isolate with maximum MIC) (Pseudomonas aeruginosa [6]; MIC 256 μg/ml, n=58): 100% | # of Patients (isolate with maximum density) (Pseudomonas aeruginosa [6]; MIC .25 μg/ml, n=58): 26 | Cumulative Frequency (isolate with maximum density) (Pseudomonas aeruginosa [6]; MIC .25 μg/ml, n=58): 45% | Cumulative Frequency (isolate with maximum MIC) (Pseudomonas aeruginosa [6]; MIC .25 μg/ml, n=58): 36% | # of Patients (isolate with maximum density) (Pseudomonas aeruginosa [6]; MIC .5 μg/ml, n=58): 10 | Cumulative Frequency (isolate with maximum density) (Pseudomonas aeruginosa [6]; MIC .5 μg/ml, n=58): 63% | Cumulative Frequency (isolate with maximum MIC) (Pseudomonas aeruginosa [6]; MIC .5 μg/ml, n=58): 53% | MIC (Pseudomonas aeruginosa [6]; Pseudomonas aeruginosa): 128 µg/mL | inhibition at 128 µg/mL (Pseudomonas aeruginosa [6]; Pseudomonas aeruginosa, read-out: inhibition of most resistant and most common isolates): 98% | MIC (Pseudomonas aeruginosa [6]; Table 3: most tobramycin-resistant isolate of each patient, n=58, number of patients on same line): .25 µg/mL and .5 µg/mL and 1 µg/mL and 2 µg/mL and 4 µg/mL and 8 µg/mL and 16 µg/mL and 32 µg/mL and 64 µg/mL and 256 µg/mL | MIC (Pseudomonas aeruginosa [6]; Table 4: most common isolate (maximum density) of each patient, n=58, number of patients on same line): .25 µg/mL and .5 µg/mL and 1 µg/mL and 2 µg/mL and 4 µg/mL and 8 µg/mL and 16 µg/mL and 32 µg/mL and 64 µg/mL and 128 µg/mL and 256 µg/mL | treatment of exacerbations in CF (in words) [7]: successfully treat exacerbations which occur in patients with CF | sputum tobramycin level, grand mean ([8]; Pari LC, 0, 300 mg in 5 ml 0.225 NS): 0 µg | sputum tobramycin level, grand mean ([8]; Pari LC, 10 min, 300 mg in 5 ml 0.225 NS): 639.1 µg | sputum tobramycin level, grand mean ([8]; Pari LC, 1 hr, 300 mg in 5 ml 0.225 NS): 117.0 µg | sputum tobramycin level, grand mean ([8]; Pari LC, 2 hr, 300 mg in 5 ml 0.225 NS): 77.6 µg | sputum tobramycin level, grand mean ([8]; Sidestream, 0 hr, 300 mg in 5 ml 0.225 NS): 0 µg | sputum tobramycin level, grand mean ([8]; Sidestream, 10 min, 300 mg in 5 ml 0.225 NS): 465.3 µg | sputum tobramycin level, grand mean ([8]; Sidestream, 1 hr, 300 mg in 5 ml 0.225 NS): 75.7 µg | sputum tobramycin level, grand mean ([8]; Sidestream, 2 hr, 300 mg in 5 ml 0.225 NS): 88.8 µg | sputum tobramycin level, grand mean ([8]; Ultra Neb, 0 hr, 600 mg in 30 ml 0.45% NS): 0 µg | sputum tobramycin level, grand mean ([8]; Ultra Neb, 10 min, 600 mg in 30 ml 0.45% NS): 1335.7 µg | sputum tobramycin level, grand mean ([8]; Ultra Neb, 1 hr, 600 mg in 30 ml 0.45% NS): 360.0 µg | sputum tobramycin level, grand mean ([8]; Ultra Neb, 2 hr, 600 mg in 30 ml 0.45% NS): 158.8 µg | concentrations delivered to the endobronchial space (in words) ([8]; formulation used with a jet nebulizer): in the efficacious range | endobronchial concentration with half dosage (in words) ([8]; human, in vivo): sufficient to achieve therapeutically effective concentration of tobramycin in the endobronchial space | time of minimum sputum level ([9]; Ultraneb 99): four | Cmax ([9]; human, sputum, inhaled or intranasal, read-out: peak sputum level, median): 1.61e+06 ng/g | Cmax ([9]; human, sputum, inhaled or intranasal, read-out: peak sputum levels, range): 310000 to 5.94e+06 ng/g | Tmax ([9]; human, sputum, inhaled or intranasal, Ultraneb 99, read-out: time of peak sputum levels after therapy): 10 to 30 min | Sputum Tobramycin Concentrations (clinical; Pari LC, 300 mg in 5 ml 1/4 NS): bql (< 20 μg/gm) | Serum Tobramycin (clinical; Pari LC, 300 mg in 5 ml 1/4 NS): not detected | achievement of target sputum concentration (in words) (clinical; Sidestream and Pari LC, target 128-1000 μg/g, 300 mg in 5 ml 1/4 NS): able to achieve a target concentrations of tobramycin in sputum | Sputum Tobramycin Concentrations (clinical; [11]): bql (< 20 μg/gm) | Serum Tobramycin (clinical; [11]): not detected | concentration at 10 min (clinical; in vivo, Sidestream, 10 min, 5 subjects): 527000 ± 586000 ng/g | concentration at 1 h (clinical; [12]): 500 ng/mL | concentration at 2 h (clinical; [12]): 400 ng/mL | concentration at 1 h (clinical; serum, Serum Tobramycin, Sidestream, 300 mg in 5 ml 1/4 NS): 200 ng/mL | concentration at 10 min (clinical; sputum, 300 mg in 5 ml of 60 mg/ml in 1/4 NS, read-out: sputum concentration achieved (target concentration)): > 128000 ng/g | concentration at 10 min (clinical; sputum, Sputum Tobramycin Concentrations, Mean/Std Dev, Pari LC, 10 min, 5 subjects): 811000 ± 677000 ng/g | concentration at 2 h (clinical; sputum, Sputum Tobramycin Concentrations, Sidestream, 300 mg in 5 ml 1/4 NS): 57500 ng/g | efficacy of 80 mg doses (in words) (Pseudomonas aeruginosa [10]): reported effective
